Assay results: US12509459B2, “Inhibitors of NLRP3 inflammasome” (BioAge Labs, Inc., priority 2024, dated 2025)

Target: NLRP3 (Homo sapiens, UniProt Q96P20)
Assay: THP-1 cell-based NLRP3 activation assay
Parameters: endogenous in cells; host or cells: THP-1 cells (PMA-differentiated, LPS-primed, nigericin-stimulated)
Settings: PMA-differentiated THP-1 cells, LPS 100 ng/mL then 10 μM nigericin
How it was run: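 After 30 min compound preincubation, inflammasome activation was triggered with 10 μM nigericin (1 h) in LPS-primed (100 ng/mL, 3 h) THP-1 cells differentiated with PMA at 20 nM/24 h or 500 nM/3 h. CellTiter-Glo measured residual cell viability.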

Sequence of NLRP3 (Q96P20 whole entry): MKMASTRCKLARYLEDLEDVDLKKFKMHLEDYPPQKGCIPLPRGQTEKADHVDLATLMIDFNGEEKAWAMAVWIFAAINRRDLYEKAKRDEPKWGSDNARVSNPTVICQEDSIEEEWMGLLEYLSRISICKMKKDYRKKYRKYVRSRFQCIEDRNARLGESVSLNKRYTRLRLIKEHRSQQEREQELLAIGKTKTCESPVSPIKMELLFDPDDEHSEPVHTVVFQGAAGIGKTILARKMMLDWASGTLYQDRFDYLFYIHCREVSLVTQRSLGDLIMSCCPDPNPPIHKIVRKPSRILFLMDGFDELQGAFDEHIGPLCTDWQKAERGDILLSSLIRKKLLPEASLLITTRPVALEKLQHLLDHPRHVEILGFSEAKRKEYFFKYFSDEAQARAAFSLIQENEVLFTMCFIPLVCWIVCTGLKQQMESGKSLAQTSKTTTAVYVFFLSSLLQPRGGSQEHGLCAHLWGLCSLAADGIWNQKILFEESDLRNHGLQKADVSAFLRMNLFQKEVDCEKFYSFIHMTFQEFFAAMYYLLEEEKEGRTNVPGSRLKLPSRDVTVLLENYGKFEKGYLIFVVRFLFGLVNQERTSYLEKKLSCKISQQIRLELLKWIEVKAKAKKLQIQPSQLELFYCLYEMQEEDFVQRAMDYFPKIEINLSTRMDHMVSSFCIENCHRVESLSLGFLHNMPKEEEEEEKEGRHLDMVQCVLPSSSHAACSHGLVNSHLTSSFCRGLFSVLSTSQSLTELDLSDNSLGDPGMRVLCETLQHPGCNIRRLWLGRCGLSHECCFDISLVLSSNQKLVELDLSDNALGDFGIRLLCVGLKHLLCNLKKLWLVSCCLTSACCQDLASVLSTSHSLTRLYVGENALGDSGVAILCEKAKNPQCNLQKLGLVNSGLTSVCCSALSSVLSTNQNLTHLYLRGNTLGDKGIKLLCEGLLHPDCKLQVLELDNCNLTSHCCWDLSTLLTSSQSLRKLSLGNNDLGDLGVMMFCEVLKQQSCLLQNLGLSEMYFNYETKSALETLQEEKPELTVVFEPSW

SMILES	IC50
CCOc1cc(C(=O)N(C)[C@H](CCC2CN(C)C2)c2cccc3cn[nH]c23)ccc1-c1cccc(F)c1 [Compound 297]	100 to 500 nM
CCOc1cc(C(=O)N(Cc2cncc3cn[nH]c23)C2CC(N(C)C)C2)ccc1-c1cccc(F)c1 (stereo not shown) [Compound 240]	500 to 1000 nM
CCOc1cc(C(=O)N(C)[C@H](CN(C)C)c2cccc3cn[nH]c23)ccc1-c1cccc(F)c1 [Compound 256]	100 to 500 nM
CCOc1cc(C(=O)N(Cc2cncc3cn[nH]c23)[C@H]2CC[C@H]2N)ccc1-c1cccc(F)c1 [Compound 300]	100 to 500 nM
CCOc1cc(C(=O)N(CCN2CCCCC2)Cc2cncc3cn[nH]c23)ccc1-c1cccc(F)c1 [Compound 117]	< 100 nM
CCOc1cc(C(=O)N(Cc2cncc3cn[nH]c23)[C@H]2C[C@@H](NC)C2)ccc1-c1cccc(F)c1 [Compound 234]	1000 to 15000 nM
CCOc1cc(C(=O)N(C)[C@H](CN(CC)CC)c2cccc3cn[nH]c23)ccc1-c1cccc(F)c1 [Compound 260]	1000 to 15000 nM
CCOc1cc(C(=O)N(C)[C@H](CC[N+]([O-])(CC)CC)c2cccc3cn[nH]c23)ccc1-c1cccc(F)c1 [Compound 216]	< 100 nM
CCOc1cc(C(=O)N(C)[C@H](CCOC)c2cncc3cn[nH]c23)ccc1-c1cccc(F)c1 [Compound 015]	< 100 nM
CCOc1cc(C(=O)N(CCO)Cc2cnc(N)c3cn[nH]c23)ccc1-c1cccc(F)c1 [Compound 047]	100 to 500 nM
CCOc1cc(C(=O)N(C)[C@@H](c2cncc3cn[nH]c23)C2CNC2)ccc1-c1cccc(C#N)c1 [Compound 141]	< 100 nM
CCOc1cc(C(=O)N(C)[C@H](CCN(C)C)c2cnc(CO)c3cn[nH]c23)ccc1-c1cccc(Cl)c1 [Compound 068]	< 100 nM
CCOc1cc(C(=O)N(C)[C@H](CCN(CC)CC)c2cccc3cn[nH]c23)ccc1-c1cccc(F)c1 [Compound 215]	< 100 nM
CCOc1cc(C(=O)N(C)[C@H](c2cncc3cn[nH]c23)C2CNC2)ccc1-c1cccc(F)c1 [Compound 092]	100 to 500 nM
CCOc1cc(C(=O)N(C)[C@H](CN(C)C)c2cncc3cn[nH]c23)ccc1-c1cccc(Cl)c1 [Compound 125]	< 100 nM
CCOc1cc(C(=O)N(C)C(CN(CC)CC)c2cccc3cn[nH]c23)ccc1-c1cccc(F)c1 (stereo not shown) [Compound 261]	< 100 nM

More lines, now with the values ahead:

IC50	SMILES
< 100 nM	CCOc1cc(C(=O)N(Cc2cncc3cn[nH]c23)[C@H]2C[C@@H](NC)C2)ccc1-c1ccccc1 [Compound 239]
< 100 nM	CCOc1cc(C(=O)N(Cc2cccc3cn[nH]c23)[C@H]2C[C@@H](N(C)C)C2)ccc1-c1cccc(C#N)c1 [Compound 293]
< 100 nM	Cc1ncc([C@@H](CCO)N(C)C(=O)c2ccc(-c3cccc(Cl)c3)c(OC3CC3)c2)c2[nH]ncc12 [Compound 026]
< 100 nM	CCOc1cc(C(=O)N(C)[C@@H](c2cncc3cn[nH]c23)C2CN(C(C)C)C2)ccc1-c1cccc(F)c1 [Compound 175]
< 100 nM	CCOc1cc(C(=O)N(CCN2CCCC(F)C2)Cc2cncc3cn[nH]c23)ccc1-c1cccc(F)c1 (stereo not shown) [Compound 114]
< 100 nM	C=CC(=O)NCC[C@H](c1cncc2cn[nH]c12)N(C)C(=O)c1ccc(-c2cccc(F)c2)c(OCC)c1 [Compound 080]
< 100 nM	CCOc1cc(C(=O)N(C)[C@@H](c2cnc(C)c3cn[nH]c23)[C@@H](C)O)ccc1-c1cccc(Cl)c1 [Compound 024]
< 100 nM	CCOc1cc(C(=O)N(C)[C@@H](CN2CCCC2)c2cncc3cn[nH]c23)ccc1-c1cccc(F)c1 [Compound 130]
< 100 nM	CCOc1cc(C(=O)N(C)[C@H](CCNC(=O)CC)c2cncc3cn[nH]c23)ccc1-c1cccc(F)c1 [Compound 147]
< 100 nM	CCOc1cc(C(=O)N(C)[C@H](CCN2CCC(F)(F)C2)c2cncc3cn[nH]c23)ccc1-c1cccc(F)c1 [Compound 100]
< 100 nM	CCOc1cc(C(=O)N(C)[C@H](CCN(C)CCF)c2cncc3cn[nH]c23)ccc1-c1cccc(Cl)c1 [Compound 067]
< 100 nM	CCOc1cc(C(=O)N(CCNC)Cc2cncc3cn[nH]c23)ccc1-c1cccc(F)c1 [Compound 116]
